“Also recorded” adds a separate entry of the source. Read-outs that look alike come from different tables or passages of the source.

One test deals with T1, human sAC (Homo sapiens, UniProt Q96PN6).
T1 construct: made in house
T1 sequence (Q96PN6 1-469 limits assumed): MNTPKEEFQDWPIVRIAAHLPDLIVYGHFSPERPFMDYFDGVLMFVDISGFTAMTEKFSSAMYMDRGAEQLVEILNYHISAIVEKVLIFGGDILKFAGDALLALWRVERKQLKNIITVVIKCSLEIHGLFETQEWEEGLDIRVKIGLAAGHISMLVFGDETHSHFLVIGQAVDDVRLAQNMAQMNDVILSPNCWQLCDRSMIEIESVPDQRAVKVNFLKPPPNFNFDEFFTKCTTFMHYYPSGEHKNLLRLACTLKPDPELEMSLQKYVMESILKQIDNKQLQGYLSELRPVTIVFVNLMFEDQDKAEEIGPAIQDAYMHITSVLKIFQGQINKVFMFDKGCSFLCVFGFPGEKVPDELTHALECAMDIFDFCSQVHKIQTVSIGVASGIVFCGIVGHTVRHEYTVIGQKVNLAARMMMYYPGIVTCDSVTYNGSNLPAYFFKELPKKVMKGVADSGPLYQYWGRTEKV
Briefly: in vitro adenylyl cyclase assay with purified human sAC protein (cAMP by Correlate-EIA). The test is classed as biochemical. The conditions noted are these: for inhibition at 100 µM: 100 μM of compound. The procedure:
Purified human sAC protein was used in an in vitro adenylyl cyclase assay. Purification of the protein is described in detail in Litvin et al. 2003. (J. Biol. Chem. 278:15922-15926). This paper also describes the general conditions for a sAC cyclase assay. The specific conditions for the in vitro assay are as follows.
For basal sAC activity, an assay master mixture with sufficient volume for all reactions was prepared containing:
100 U/ml creatine phosphokinase (CPK)
An aliquot of the master mixture was added to the purified human sAC. The assay mixture also included the indicated concentration of KH compound, or an equivalent volume of vehicle (i.e., DMSO) as control. The reaction was started by adding 5 mM ATP (total assay volume=100 μL). The reaction mixture was incubated at 30° C. for 30 minutes and then stopped by adding 100 μl […]. Stimulated assay conditions involve adding 40 mM bicarbonate and 5 mM CaCl2 to the above master mixture.
(§1) Cyclic AMP levels were measured in each sample using the Correlate-EIA Direct Cyclic AMP assay kit from Assay Designs as per manufacturers instructions.

Test [1] deals with P. aeruginosa CyaB (a Class III adenylyl cyclase). As to the kind of experiment: Pseudomonas adenylyl cyclase assay with purified His-CyaB. The test is classed as biochemical, Pseudomonas aeruginosa. To be noted: increasing concentrations of compound, FIG. 1 / FIG. 2. The procedure: FIG. 1. […] The CyaB was heterologously expressed in E. coli as a poly-histidine tagged fusion protein and purified using a nickel column. Adenylyl cyclase activity was determined by measuring cyclic AMP levels using the Correlate-EIA Direct Cyclic AMP assay kit from Assay Designs as per manufacturers instructions.
FIG. 2. […] The CyaB was heterologously expressed in E. coli as a poly-histidine tagged fusion protein and purified using a nickel column. Adenylyl cyclase activity was determined by measuring cyclic AMP levels using the Correlate-EIA Direct Cyclic AMP assay kit from Assay Designs as per manufacturers instructions.
P. aeruginosa CyaB (a Class III adenylyl cyclase) was heterologously expressed in E. coli as a HIS-tagged, fusion protein. Expression of the fusion protein was induced by Isopropyl β-D-1-thiogalactopyranoside (IPTG) t at 21° C. (empirically found to be best temperature for expression). The His-CyaB fusion protein was purified using a nickel affinity column according to standard protocols in the absence of any reducing agent. Eluted protein was dialyzed into storage buffer consisting of: 50 mM Tris (pH 8.5), 10 mM NaCl, 2 mM MgCl2, and 25% glycerol.
The purified CyaB was assayed for cyclase activity as follows. […]
as §1

Setting [2] is: BASAL human sAC in vitro activity, read-out: % Inhibition (100 μM), hsACt-Basal.
Where [3] appears, read: stimulated human sAC in vitro activity, read-out: % Inhibition (100 μM), hsACt-Stim.
[4] abbreviates: BASAL activity of human sAC in vitro (just Mg-ATP, no calcium or bicarbonate), read-out: hsACt-Basal approximate IC50 (or the dose range where the IC50 should lie).
Setting [5] is: stimulated activity of human sAC in vitro (calcium and bicarbonate stimulated), read-out: hsACt-Stim. approximate IC50 (or the dose range where the IC50 should lie).

One may read the inhibition as the percentage by which the read-out fell short of the control. One may read the IC50 as the concentration at which inhibition is half-maximal. As to `COc1ccc(C2=NN(C(=O)CSc3nc4ccccc4[nH]3)C(c3ccc(F)cc3)C2)cc1` (stereo not shown) [KH7.120], the inhibition at 100 µM on human sAC (setting [2]) and on human sAC (setting [3]) was 90% each time. Further, the IC50 on human sAC (setting [4]) and on human sAC (setting [5]) was 10 to 100 µM each time. For the same compound, in test [1], the “effect on CyaB adenylyl cyclase activity” value was “activator; also recorded: increase in the activity”.

For `O=C(CSc1nc2ccccc2[nH]1)N/N=C/c1ccc(O)c(O)c1` [KH7.148], the inhibition at 100 µM came out at 70% at human sAC (setting [2]) and 80% on human sAC (setting [3]). Also, the IC50 at human sAC (setting [4]) is 10 to 100 µM; on human sAC (setting [5]), 1 to 10 µM. Moreover, in test [1], the “effect on CyaB adenylyl cyclase activity” value is “inhibitor; also recorded: decrease in the activity”.
